Publication PMC3723537, “Structural Basis for Native Agonist and Synthetic Inhibitor Recognition by the Pseudomonas aeruginosa Quorum Sensing Regulator PqsR (MvfR)” (PLoS Pathogens, 2013)
“Also recorded” adds a separate entry of the source. Like-named read-outs stand apart in the source and are kept apart here.

Assays:
[1] = target: T1, PqsR (Pseudomonas aeruginosa, UniProt Q9I4X0); assay: cell-based; parameters: assayed for their agonist and antagonist activities in a whole P. aeruginosa bacterial cell assay; endogenous in cells; host or cells: P. aeruginosa PAO1 wild type, ΔpqsA or ΔpqsAH strains carrying a chromosomal (mini)CTX::pqsA'-lux fusion; conditions: for Antagonist activity on PqsR (in words): pqsA'-lux reporter; for IC50: Figure 6 (QZNs), P. aeruginosa wild type strain with miniCTX::pqsA'-lux fusion, read-out: Antagonist IC50±SD
T1 sequence (Q9I4X0 1-332): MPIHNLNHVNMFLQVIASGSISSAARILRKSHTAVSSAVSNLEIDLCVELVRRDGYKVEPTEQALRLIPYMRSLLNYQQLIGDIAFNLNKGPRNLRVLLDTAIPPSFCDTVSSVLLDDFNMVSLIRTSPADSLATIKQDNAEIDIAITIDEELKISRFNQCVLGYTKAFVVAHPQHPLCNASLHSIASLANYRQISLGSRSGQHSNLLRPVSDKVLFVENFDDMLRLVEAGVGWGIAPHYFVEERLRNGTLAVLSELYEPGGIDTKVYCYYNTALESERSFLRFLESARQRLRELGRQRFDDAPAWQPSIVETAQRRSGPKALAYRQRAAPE

[2] = system: AQ biosynthesis; parameters: method as in PMID 17941706; conditions: cited from earlier work
[3] = target: T1, PqsR; assay: cell-based; parameters: assayed for their agonist and antagonist activities in a whole P. aeruginosa bacterial cell assay; endogenous in cells; host or cells: P. aeruginosa PAO1 wild type, ΔpqsA or ΔpqsAH strains carrying a chromosomal (mini)CTX::pqsA'-lux fusion; conditions: for Agonist activity on PqsR (in words): pqsA'-lux reporter
[4] = system: P. aeruginosa; assay: Bacterial growth in the reporter assays; assay type: cell-based, Pseudomonas aeruginosa
Protocol: The impact of the AQs and QZNs on PqsR-dependent gene expression in P. aeruginosa was evaluated using lux-based pqsA, lecA and phzA1 promoter fusions (Table S1) in 96-well microtiter plates as described before,[23]. Bioluminescence and bacterial growth were quantified using a combined luminometer-spectrometer (Tecan GENios Pro). Where required, AQs or QZNs were added to reporter strains and EC50 or IC50 values were extracted from the sigmoidal dose–response curves obtained using Prism2 (Graphpad, San Diego, USA).

[5] = target: T1, PqsR; assay: cell-based; parameters: assayed for their agonist and antagonist activities in a whole P. aeruginosa bacterial cell assay; endogenous in cells; host or cells: P. aeruginosa PAO1 wild type, ΔpqsA or ΔpqsAH strains carrying a chromosomal (mini)CTX::pqsA'-lux fusion; conditions: Figure 2 (AQs); P. aeruginosa ΔpqsAH CTX::pqsA'-lux strain; read-out: Agonist EC50 ±SD
[6] = target: T1, PqsR; parameters: assayed for their agonist and antagonist activities in a whole P. aeruginosa bacterial cell assay; endogenous in cells; host or cells: P. aeruginosa PAO1 wild type, ΔpqsA or ΔpqsAH strains carrying a chromosomal (mini)CTX::pqsA'-lux fusion; method as in PMID 17922753; conditions: cited from earlier work; for Activation of PqsR (in words): dependence on alkyl chain length
[7] = MeOH stock at a workable concentration
[8] = target: PqsR Leu207Glu (Pseudomonas aeruginosa, UniProt Q9I4X0, L207E); assay: Response of PqsR-6His ligand binding site variants to PQS and HHQ, pqsA'-lux in ΔpqsA ΔpqsH ΔpqsR strain; assay type: cell-based; conditions: Leu207Glu mutation; co-inducer 40 µM
[9] = Figure 6 (QZNs), P. aeruginosa ΔpqsA miniCTX::pqsA'-lux strain, read-out: Agonist EC50±SD
[10] = Figure 2 (AQs), P. aeruginosa ΔpqsA CTX::pqsA'-lux strain, read-out: Agonist EC50 ±SD

For `CCCCCCCCCc1nc2cc(C(F)(F)F)ccc2c(=O)n1N` [compound 27], the “Antagonist activity on PqsR (in words)” value [1] was “complete loss of activity”.

For `Nc1cc(Cl)ccc1C(=O)O` [4-CABA, 2-amino-4-chorobenzoic acid], the “Concentrations required to inhibit AQ production” value [2] is given as “millimolar range”.

In the case of `CCCCCCCCCc1nc2ccccc2c(=O)[nH]1` [C9-QZN], the “Agonist activity on PqsR (in words)” value [3] is reported as “devoid of agonist or antagonist activity” and the “Antagonist activity on PqsR (in words)” value [1] is reported as “devoid of agonist or antagonist activity”.

In the case of `CCCCCCCCCc1nc2cc(Cl)ccc2c(=O)n1CCCN` [compound 38], the Growth inhibition [4] is reported as “exhibited growth inhibition” and the melting point is reported as 82 to 95 °C.

With `CCCCCCCCCc1nc2cc(Cl)ccc2c(=O)n1CCN` [compound 37] the Growth inhibition [4] was “exhibited growth inhibition” and the melting point was 69 to 72 °C.

With `CCCCCCCCCc1nc2cc(F)ccc2c(=O)n1O` [compound 12] the EC50 [3, 9] was 21 ± 5.5 µM and the “Agonist activity on PqsR (in words)” value [3] was “totally devoid of agonist activity”.

With `CCCCCCCCCc1nc2ccccc2c(=O)n1NC(C)=O` [compound 33] the “Antagonist activity on PqsR (in words)” value [1] was “inactive or weak antagonists”.

In the case of `CCCCCCCCCc1nc2cc(F)ccc2c(=O)n1N` [compound 25], the IC50 [1] is reported as 3.9 ± 1.5 µM.

In the case of `CCCCCCCCCc1nc2cc(Cl)ccc2c(=O)n1OC` [compound 15], the EC50 [3, 9] is reported as 37.3 ± 6.5 µM.

With `CCCCCCCCCc1nc2cc(F)c(F)cc2c(=O)n1N` [compound 26] the IC50 [1] was 1.2 ± 0.4 µM.

In the case of `CCCCCCCCCc1nc2ncccc2c(=O)n1N` [compound 47], the “Antagonist activity on PqsR (in words)” value [1] is reported as “complete loss of activity”.

In the case of `CCCCCCCc1nc2ccccc2c(=O)n1N` [compound 19], the “Agonist activity on PqsR (in words)” value [3] is reported as “None of these compounds were agonists” and the IC50 [1] is reported as 54 ± 15.5 µM.

In the case of `CCCCCC(C)CCc1nc2ccccc2c(=O)n1N` (stereo not shown) [compound 29], the “Antagonist activity on PqsR (in words)” value [1] is reported as “all inactive”.

In the case of `CCCCCCCCCc1cc(O)c2ccccc2n1` [compound 3, 2-nonyl-4-hydroxyquinoline], the EC50 [5] is listed as 2.5 ± 1.5 µM, the EC50 [3, 10] is listed as 0.4 ± 0.1 µM and the “Activation of PqsR (in words)” value [6] is listed as “highly active”.

With `Nn1c(Cc2ccc(-c3ccccc3)cc2)nc2cc(Cl)ccc2c1=O` [compound 44] the “Solubility (in words)” value [7] was “did not dissolve in MeOH at a workable concentration”.

With `NCCn1c(CCCc2ccccc2)nc2cc(Cl)ccc2c1=O` [compound 39] the Growth inhibition [4] was “exhibited growth inhibition” and the IC50 [1] was 79.2 ± 2.7 µM.

In the case of `CCCCCCCCCc1nc2ccc(Cl)cc2c(=O)n1CCN` [compound 36], the Growth inhibition [4] is reported as “exhibited growth inhibition” and the melting point is reported as 72 to 74 °C.

In the case of `CCCCCCCCCCCc1nc2ccccc2c(=O)n1N` [compound 21], the “Agonist activity on PqsR (in words)” value [3] is reported as “None of these compounds were agonists” and the IC50 [1] is reported as 210 ± 77 µM.

Compound `Nn1c(CCCc2ccccc2)nc2cc(Cl)ccc2c1=O` [compound 41] has an IC50 [1] of 39.6 ± 11 µM.

In the case of `Nn1c(CCc2c[nH]c3ccccc23)nc2cc(Cl)ccc2c1=O` [compound 43], the “Solubility (in words)” value [7] is reported as “did not dissolve in MeOH at a workable concentration”.

With `CCCCCCCCCc1nc2ccccc2c(=O)n1N` [compound 20] the “Agonist activity on PqsR (in words)” value [3] was “None of these compounds were agonists” and the IC50 [1] was 77.2 ± 1 µM.

With `CC(C)CCCCCCc1nc2ccccc2c(=O)n1N` [compound 30] the “Antagonist activity on PqsR (in words)” value [1] was “all inactive”.

For `CCCCCCCCCc1nc2ccccc2c(=O)n1O` [compound 10], the EC50 [3, 9] was 30 ± 3.8 µM.

For `CCCCCCCc1nc2ccccc2c(=O)n1O` [compound 9], the EC50 [3, 9] was 54 ± 6.6 µM and the “Agonist activity on PqsR (in words)” value [3] was “partial agonists”.

With `CCCCCCCc1[nH]c2cc(Cl)ccc2c(=O)c1O` [compound 5] the EC50 [3, 10] was 0.014 ± 0.005 µM and the “Agonist potency relative to PQS” value ([3]; in P. aeruginosa, from Figure 2 EC50s) was ~135 times.

For `CCCCCCCc1[nH]c2ccccc2c(=O)c1N` [5a], the EC50 [3, 10] was 0.4 ± 0.15 µM.

With `CCCCCCCCCc1nc2ccccc2c(=O)n1OC` [compound 14] the “Agonist activity on PqsR (in words)” value [3] was “inactive”.

In the case of `CCCCCCCCCc1nc2ccccc2c(=O)n1CCN` [compound 35], the Growth inhibition [4] is reported as “exhibited growth inhibition”, the melting point is reported as 77 to 81 °C and the “Antagonist activity on PqsR (in words)” value [1] is reported as “inactive or weak antagonists”.

Work on `CCCCCCCCCc1nc2cc(Cl)ccc2c(=O)n1O` [compound 11] yielded an EC50 [3, 9] of 12.7 ± 7.8 µM.

`CCCCCCCCCc1nc2cc(F)ccc2c(=O)n1OC` [compound 16] gave an EC50 [3, 9] of 2.2 µM.

For `CCCCCCCCCc1nc2ccc(Cl)cc2c(=O)n1N` [compound 22], the “Antagonist activity on PqsR (in words)” value [1] was “complete loss of antagonist activity”.

For `CCCCCCCCCc1nc2cc(F)ccc2c(=O)[nH]1` [7F-C9-QZN], the “Agonist activity on PqsR (in words)” value [3] was “devoid of agonist or antagonist activity”, the “Agonist activity on PqsR (in words)” value ([3]; listed as 8) was “partial agonists” and the “Antagonist activity on PqsR (in words)” value [1] was “devoid of agonist or antagonist activity”.

In the case of `Nn1c(CCCC2CCCCC2)nc2ccccc2c1=O` [compound 46], the “Solubility (in words)” value [7] is reported as “barely soluble”.

In the case of `CCCCCCCCCc1nc2cc(OC)c(OC)cc2c(=O)n1N` [compound 28], the “Antagonist activity on PqsR (in words)” value [1] is reported as “inactive”.

In the case of `CCCCCCCCCc1[nH]c2ccccc2c(=O)c1O` [compound 4, 2-nonyl-3-hydroxy-4(1H)-quinolone], the EC50 [5] is listed as 9.1 ± 11.2 µM, the EC50 [3, 10] is listed as 1.1 ± 0.5 µM and the “Activation of PqsR (in words)” value [6] is listed as “highly active”.

In the case of `CCCCCCCc1nc2ccccc2c(=O)[nH]1` [C7-QZN], the “Agonist activity on PqsR (in words)” value [3] is reported as “devoid of agonist or antagonist activity” and the “Antagonist activity on PqsR (in words)” value [1] is reported as “devoid of agonist or antagonist activity”.

For `CCCCOCCOCc1nc2ccccc2c(=O)n1N` [compound 32], the “Antagonist activity on PqsR (in words)” value [1] was “all inactive”.

For `CCCCCCCCCc1nc2cc(F)c(F)cc2c(=O)n1OC` [compound 17], the EC50 [3, 9] was 53.6 ± 13.7 µM and the “Reduction of agonist potency relative to 3-OMe-7F-C9-QZN” value ([3]; second fluorine introduced) was ~25 fold.

For `CCCCCCCc1nc2ccccc2c(=O)n1OC` [compound 13], the “Agonist activity on PqsR (in words)” value [3] was “inactive; also recorded: totally devoid of agonist activity”.

For `CCCCCCCc1cc(O)c2ccccc2n1` [compound 2, 2-heptyl-4-hydroxyquinoline], the EC50 [5] is given as 16.4 ± 2.6 µM, the EC50 [3, 10] is given as 0.8 ± 0.3 µM and the “EC50 for PqsR-dependent activation of pqsA” value ([6]; whole P. aeruginosa cell assays) is given as “low micromolar range”. For the same compound, the “Response, % of pqsA promoter activity with respect to strain expressing PqsR-6His” value [8] was 5%.
